Measured values from US10442778B2, “N1-phenylpropane-1,2-diamine compounds with selective activity in voltage-gated sodium channels” (Merck Sharp & Dohme Corp., priority 2016, dated 2019).

Key:
[1] = molecular target: T1, human Nav1.7 channels stably expressed in HEK 293 cells (Homo sapiens, UniProt Q15858); assay: IonWorks Quattro automated patch-clamp, inactivated state block of Nav1.7; type: cell-based; conditions: double-pulse protocol, read-out: potency for the Nav 1.7 sodium ion channel (as measured by IonWorks)
T1 construct: expressed in transfected cells; host or cells: HEK 293
Experimental: (§1) Compounds were tested on human Nav1.7 and Nav1.5 channels stably expressed in HEK 293 cells. […] Cells were sealed on a planar substrate using the Population Patch Plate (PPC) technology. Electrical access was obtained using both nystatin and amphotericin. A double-pulse protocol was used for the determination of IC50 values for inactivated state block. Nav1.7 and Nav1.5 expressing cells were voltage clamped at −100 mV and −110 mV, respectively. A depolarizing prepulse to −10 mV (Nav1.7) or −30 mV (Nav1.5) for 1000 ms followed by a 10 ms repolarization to −100 mV (Nav1.7) or −110 mV (Nav1.5) was given to generate fractional channel inactivation of ˜50%, followed by a 10 ms test pulse to −10 mV (Nav1.7) or −30 mV (Nav1.5) to measure peak current in control conditions and after compound addition. The following recording solutions were used (mM). External: 150 NaCl, 2 CaCl2, 5 KCl, 1 Mg Cl2, 10 HEPES, 12 Dextrose; internal: 120 CsF, 30 CsCl, 10 EGTA, 5 HEPES, 5 NaF, 2 MgCl2.
(§2) For all electrophysiology experiments, offline analysis was used to determine percent inhibition as a function of drug concentration. IC50 values were determined by fitting to the Hill equation.

[2] = molecular target: T2, human Nav1.5 channels stably expressed in HEK 293 cells (Homo sapiens, UniProt Q14524); assay: IonWorks Quattro automated patch-clamp, inactivated state block of Nav1.5 (selectivity); type: cell-based; conditions: IonWorks measurement, both channels in HEK 293 cells
T2 construct: expressed in transfected cells; host or cells: HEK 293
Experimental: as §1, §2

T2 sequence (Q14524 whole entry): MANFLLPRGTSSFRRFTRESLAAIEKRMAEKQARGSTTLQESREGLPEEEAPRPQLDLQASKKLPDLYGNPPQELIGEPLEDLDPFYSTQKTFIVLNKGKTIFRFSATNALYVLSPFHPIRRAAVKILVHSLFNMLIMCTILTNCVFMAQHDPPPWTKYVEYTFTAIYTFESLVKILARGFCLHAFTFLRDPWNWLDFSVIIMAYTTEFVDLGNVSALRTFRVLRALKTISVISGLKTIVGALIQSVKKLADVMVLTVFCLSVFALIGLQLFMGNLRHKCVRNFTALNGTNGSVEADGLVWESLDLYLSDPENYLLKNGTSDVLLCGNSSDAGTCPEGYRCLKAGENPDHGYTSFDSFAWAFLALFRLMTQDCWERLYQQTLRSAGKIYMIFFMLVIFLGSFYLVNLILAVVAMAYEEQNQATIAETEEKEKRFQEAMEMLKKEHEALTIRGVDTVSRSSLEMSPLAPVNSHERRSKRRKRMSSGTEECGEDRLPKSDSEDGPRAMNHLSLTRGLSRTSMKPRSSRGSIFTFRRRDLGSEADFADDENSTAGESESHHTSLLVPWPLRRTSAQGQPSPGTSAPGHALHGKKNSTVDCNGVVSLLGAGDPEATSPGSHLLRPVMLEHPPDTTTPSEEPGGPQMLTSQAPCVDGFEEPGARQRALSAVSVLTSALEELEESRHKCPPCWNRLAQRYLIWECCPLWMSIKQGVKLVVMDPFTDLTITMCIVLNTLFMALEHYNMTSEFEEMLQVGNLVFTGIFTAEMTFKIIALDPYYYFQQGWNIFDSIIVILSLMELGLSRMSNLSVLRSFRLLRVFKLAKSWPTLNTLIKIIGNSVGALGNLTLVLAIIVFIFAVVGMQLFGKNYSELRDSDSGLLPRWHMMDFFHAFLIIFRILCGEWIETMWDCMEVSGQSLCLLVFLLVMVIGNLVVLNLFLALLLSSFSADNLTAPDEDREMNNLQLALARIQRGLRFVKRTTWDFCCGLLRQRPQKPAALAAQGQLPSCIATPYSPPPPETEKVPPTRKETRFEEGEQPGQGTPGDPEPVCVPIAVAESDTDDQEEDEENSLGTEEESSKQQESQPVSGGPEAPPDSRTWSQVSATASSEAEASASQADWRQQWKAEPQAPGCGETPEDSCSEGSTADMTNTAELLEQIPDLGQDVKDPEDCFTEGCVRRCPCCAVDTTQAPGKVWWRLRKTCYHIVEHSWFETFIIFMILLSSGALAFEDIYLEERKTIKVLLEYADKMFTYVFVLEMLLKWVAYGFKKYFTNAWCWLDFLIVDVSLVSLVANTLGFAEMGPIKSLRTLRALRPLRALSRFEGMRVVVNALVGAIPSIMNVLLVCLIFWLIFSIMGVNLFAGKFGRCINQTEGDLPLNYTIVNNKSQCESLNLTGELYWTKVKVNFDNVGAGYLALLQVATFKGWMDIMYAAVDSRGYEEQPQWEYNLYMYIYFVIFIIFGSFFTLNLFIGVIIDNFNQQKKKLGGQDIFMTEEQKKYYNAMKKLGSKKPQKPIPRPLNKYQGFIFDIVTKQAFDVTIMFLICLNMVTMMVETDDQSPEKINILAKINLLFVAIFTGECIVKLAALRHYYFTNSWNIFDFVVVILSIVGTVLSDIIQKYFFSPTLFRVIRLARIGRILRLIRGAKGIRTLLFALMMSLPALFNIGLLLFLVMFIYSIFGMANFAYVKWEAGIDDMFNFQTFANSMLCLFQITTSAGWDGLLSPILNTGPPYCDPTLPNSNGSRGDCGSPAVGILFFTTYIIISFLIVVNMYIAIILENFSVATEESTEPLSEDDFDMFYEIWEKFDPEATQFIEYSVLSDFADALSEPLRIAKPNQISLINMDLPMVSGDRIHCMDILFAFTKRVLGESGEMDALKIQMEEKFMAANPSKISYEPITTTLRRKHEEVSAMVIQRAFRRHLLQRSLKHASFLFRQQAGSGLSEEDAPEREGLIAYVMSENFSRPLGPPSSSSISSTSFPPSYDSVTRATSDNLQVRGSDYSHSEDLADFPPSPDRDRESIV
T1 sequence (Q15858 whole entry): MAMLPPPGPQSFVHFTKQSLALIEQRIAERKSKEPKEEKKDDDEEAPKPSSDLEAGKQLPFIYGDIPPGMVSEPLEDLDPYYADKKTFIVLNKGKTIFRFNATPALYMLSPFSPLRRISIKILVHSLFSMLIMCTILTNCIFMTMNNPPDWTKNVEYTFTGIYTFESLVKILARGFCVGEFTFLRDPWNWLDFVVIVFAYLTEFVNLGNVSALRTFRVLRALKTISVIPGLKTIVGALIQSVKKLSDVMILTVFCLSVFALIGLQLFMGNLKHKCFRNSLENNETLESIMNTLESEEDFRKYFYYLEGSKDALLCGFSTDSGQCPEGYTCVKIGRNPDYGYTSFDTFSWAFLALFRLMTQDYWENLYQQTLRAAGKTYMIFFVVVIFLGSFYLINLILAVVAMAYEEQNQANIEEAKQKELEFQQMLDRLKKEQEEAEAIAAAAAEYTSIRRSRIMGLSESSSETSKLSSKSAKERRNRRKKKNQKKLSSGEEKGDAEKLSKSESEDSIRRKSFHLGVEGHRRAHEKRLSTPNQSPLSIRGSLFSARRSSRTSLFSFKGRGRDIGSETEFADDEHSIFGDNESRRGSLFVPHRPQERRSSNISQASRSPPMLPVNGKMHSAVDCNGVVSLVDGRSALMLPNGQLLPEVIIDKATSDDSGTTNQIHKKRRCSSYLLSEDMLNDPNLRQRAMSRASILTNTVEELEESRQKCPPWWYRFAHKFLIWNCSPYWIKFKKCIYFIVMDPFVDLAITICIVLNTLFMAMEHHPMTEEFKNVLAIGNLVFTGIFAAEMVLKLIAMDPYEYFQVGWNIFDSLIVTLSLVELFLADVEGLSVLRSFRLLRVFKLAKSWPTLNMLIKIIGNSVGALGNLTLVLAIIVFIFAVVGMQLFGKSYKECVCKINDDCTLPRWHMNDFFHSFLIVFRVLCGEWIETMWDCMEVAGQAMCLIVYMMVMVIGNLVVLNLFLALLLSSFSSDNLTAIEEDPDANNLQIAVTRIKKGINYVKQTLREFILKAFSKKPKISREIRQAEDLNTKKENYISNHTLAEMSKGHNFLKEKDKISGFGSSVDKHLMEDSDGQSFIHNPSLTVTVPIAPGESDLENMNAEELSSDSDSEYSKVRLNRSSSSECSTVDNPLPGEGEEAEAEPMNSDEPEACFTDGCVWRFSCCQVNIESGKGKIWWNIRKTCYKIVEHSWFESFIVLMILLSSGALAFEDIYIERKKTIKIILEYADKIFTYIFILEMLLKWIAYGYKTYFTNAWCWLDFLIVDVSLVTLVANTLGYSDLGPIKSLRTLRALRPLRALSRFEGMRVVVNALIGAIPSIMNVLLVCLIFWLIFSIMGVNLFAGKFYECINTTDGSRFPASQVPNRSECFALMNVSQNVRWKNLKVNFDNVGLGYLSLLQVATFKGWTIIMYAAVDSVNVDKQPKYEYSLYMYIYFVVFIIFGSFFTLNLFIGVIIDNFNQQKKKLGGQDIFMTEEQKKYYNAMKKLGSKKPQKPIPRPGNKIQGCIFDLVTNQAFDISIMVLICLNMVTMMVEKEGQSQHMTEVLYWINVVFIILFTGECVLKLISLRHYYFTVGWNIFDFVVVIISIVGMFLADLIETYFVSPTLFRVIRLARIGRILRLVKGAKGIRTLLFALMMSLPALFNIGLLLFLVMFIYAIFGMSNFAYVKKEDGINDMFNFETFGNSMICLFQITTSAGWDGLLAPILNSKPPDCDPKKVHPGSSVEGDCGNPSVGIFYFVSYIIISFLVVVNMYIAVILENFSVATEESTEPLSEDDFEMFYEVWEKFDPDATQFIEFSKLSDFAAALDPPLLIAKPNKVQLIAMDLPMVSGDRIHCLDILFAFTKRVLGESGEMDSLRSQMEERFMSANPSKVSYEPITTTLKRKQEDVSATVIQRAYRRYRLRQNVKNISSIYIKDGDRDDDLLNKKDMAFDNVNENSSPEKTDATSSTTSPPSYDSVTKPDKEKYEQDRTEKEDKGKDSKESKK

Structure (SMILES) | IC50 [1] | ratio of Nav1.7 potency:Nav 1.5 potency [2]
CN[C@H](CNc1cc(F)c(S(=O)(=O)Nc2nccs2)cc1Cl)Cc1ccc(F)cc1 (single isomer, unassigned) [Ex1-12] | 61 nM | > 541
CN[C@H](CNc1cc(F)c(S(=O)(=O)Nc2ncc(F)s2)cc1Cl)CC1CCCC1 (single isomer, unassigned) [Ex3-11] | 110 nM | –
CN[C@H](CNc1cc(F)c(S(=O)(=O)Nc2ncc(F)s2)cc1Cl)CC1(CF)CC1 (single isomer, unassigned) [Ex5-4] | 2000 nM | > 14
CN[C@H](CNc1cc(F)c(S(=O)(=O)Nc2nccs2)cc1Cl)Cc1ccccc1 [Ex1-7, (S)-5-chloro-2-fluoro-4-((2-(methylamino)-3-phenylpropyl)amino)-N-(thiazol-2-yl)benzenesulfonamide] | 200 nM | –
CN[C@H](CNc1cc(F)c(S(=O)(=O)Nc2nccs2)cc1Cl)CC1CCCCC1 [Ex1-18, (S)-5-chloro-4-((3-cyclohexyl-2-(methylamino)propyl)amino)-2-fluoro-N-(thiazol-2-yl)benzenesulfonamide] | 15 nM | > 2200
CN[C@H](CNc1cc(F)c(S(=O)(=O)Nc2nccs2)cc1Cl)Cc1cccc(Cl)c1 [Ex1-19, (S)-5-chloro-4-((3-(3-chlorophenyl)-2-(methyl-amino)propyl)-amino)-2-fluoro-N-(thiazol-2-yl)-benzenesulfonamide] | 24 nM | > 1375
CN[C@H](CNc1cc(F)c(S(=O)(=O)Nc2nccs2)cc1Cl)Cc1ccc(C)cc1 [Ex1-20, (S)-5-chloro-2-fluoro-4-((2-(methylamino)-3-(p-tolyl)propyl)amino)-N-(thiazol-2-yl)-benzenesulfonamide] | 280 nM | > 118
CN[C@@H](CCc1ccccc1)CNc1cc(F)c(S(=O)(=O)Nc2nccs2)cc1Cl [Ex1-21, (S)-5-chloro-2-fluoro-4-((2-(methylamino)-4-phenylbutyl)amino)-N-(thiazol-2-yl)-benzenesulfonamide] | 200 nM | –
CN[C@@H](CCc1ccccc1)CNc1cc(F)c(S(=O)(=O)Nc2ncc(F)s2)cc1Cl [Ex1-22, (S)-5-chloro-2-fluoro-N-(5-fluorothiazol-2-yl)-4-((2-(methylamino)-4-phenylbutyl)amino)-benzenesulfonamide] | 140 nM | > 236
CN[C@H](CNc1cc(F)c(S(=O)(=O)Nc2nccs2)cc1Cl)Cc1cccc(Br)c1 [Ex1-23, (S)-4-((3-(3-bromo-phenyl)-2-(methylamino)-propyl)amino)-5-chloro-2-fluoro-N-(thiazol-2-yl)-benzenesulfonamide] | 36 nM | > 917
CN[C@H](CNc1cc(F)c(S(=O)(=O)Nc2nccs2)cc1Cl)Cc1ccccc1Br [Ex1-24, (S)-4-((3-(2-bromo-phenyl)-2-(methylamino)-propyl)amino)-5-chloro-2-fluoro-N-(thiazol-2-yl)-benzenesulfonamide] | 440 nM | > 75
CN[C@H](CNc1cc(F)c(S(=O)(=O)Nc2nccs2)cc1Cl)Cc1ccc(Br)cc1 [Ex1-25, (S)-4-((3-(4-bromo-phenyl)-2-(methylamino)-propyl)amino)-5-chloro-2-fluoro-N-(thiazol-2-yl)-benzenesulfonamide] | 110 nM | –
CN[C@H](CNc1cc(F)c(S(=O)(=O)Nc2ncns2)cc1Cl)Cc1ccccc1 [Ex1-26, (S)-5-chloro-2-fluoro-4-((2-(methylamino)-3-phenylpropyl)amino)-N-(1,2,4-thiadiazol-5-yl)-benzenesulfonamide] | 200 nM | –
CN[C@H](CNc1cc(F)c(S(=O)(=O)Nc2ncc(F)s2)cc1Cl)Cc1ccccc1 [Ex1-27, (S)-5-chloro-2-fluoro-N-(5-fluorothiazol-2-yl)-4-((2-(methylamino)-3-phenylpropyl)amino)-benzenesulfonamide] | 190 nM | > 174
CN[C@H](CNc1cc(F)c(S(=O)(=O)Nc2nccs2)cc1Cl)Cc1cccc(F)c1 [Ex1-28, (S)-5-chloro-2-fluoro-4-((3-(3-fluorophenyl)-2-(methylamino)-propyl)-amino)-N-(thiazol-2-yl)-benzenesulfonamide] | 32 nM | > 1031
CN[C@H](CNc1cc(F)c(S(=O)(=O)Nc2nccs2)cc1Cl)Cc1ccccc1F [Ex1-29, (S)-5-chloro-2-fluoro-4-((3-(2-fluorophenyl)-2-(methylamino)-propyl)-amino)-N-(thiazol-2-yl)-benzenesulfonamide] | 310 nM | > 106
CN[C@H](CNc1cc(F)c(S(=O)(=O)Nc2nccs2)cc1Cl)Cc1cc(F)cc(F)c1 [Ex1-30, (S)-5-chloro-4-((3-(3,5-difluorophenyl)-2-(methyl-amino)-propyl)amino)-2-fluoro-N-(thiazol-2-yl)-benzenesulfonamide] | 160 nM | > 206
CN[C@H](CNc1cc(F)c(S(=O)(=O)Nc2nccs2)cc1Cl)Cc1ccc(F)c(F)c1 [Ex1-31, (S)-5-chloro-4-((3-(3,4-difluorophenyl)-2-(methyl-amino)propyl)amino)-2-fluoro-N-(thiazol-2-yl)-benzenesulfonamide] | 30 nM | > 1100
CN[C@H](CNc1cc(F)c(S(=O)(=O)Nc2nccs2)cc1Cl)Cc1ccc(F)cc1Br [Ex1-32, (S)-4-((3-(2-bromo-4-fluorophenyl)-2-(methyl-amino)propyl)-amino)-5-chloro-2-fluoro-N-(thiazol-2-yl)-benzenesulfonamide] | 170 nM | –
CN[C@H](CNc1cc(F)c(S(=O)(=O)Nc2nccs2)cc1Cl)Cc1cccc(F)c1Br [Ex1-33, (S)-4-((3-(2-bromo-3-fluorophenyl)-2-(methyl-amino)propyl)-amino)-5-chloro-2-fluoro-N-(thiazol-2-yl)-benzenesulfonamide] | 130 nM | > 254
CN[C@H](CNc1cc(F)c(S(=O)(=O)Nc2nccs2)cc1Cl)Cc1ccc(Cl)cc1 [Ex1-34, (S)-5-chloro-4-((3-(4-chlorophenyl)-2-(methyl-amino)propyl)amino)-2-fluoro-N-(thiazol-2-yl)-benzenesulfonamide] | 33 nM | > 1000
CN[C@H](CNc1cc(F)c(S(=O)(=O)Nc2ncc(F)s2)cc1Cl)CC1CCC1 [Ex2-12, (S)-5-chloro-4-((3-cyclobutyl-2-(methylamino)propyl)amino)-2-fluoro-N-(5-fluorothiazol-2-yl)benzenesulfonamide] | 1030 nM | > 32
CN[C@H](CNc1cc(F)c(S(=O)(=O)Nc2ncc(F)s2)cc1Cl)CC12CC(C1)C2 [Ex2-13, (S)-4-((3-(bicyclo[1.1.1]pentan-1-yl)-2-(methylamino)propyl)-amino)-5-chloro-2-fluoro-N-(5-fluorothiazol-2-yl)-benzenesulfonamide] | 54 nM | > 611
CN[C@H](CNc1cc(F)c(S(=O)(=O)Nc2ncc(F)s2)cc1Cl)CC1(C(F)(F)F)CC1 [Ex2-14, (S)-5-chloro-2-fluoro-N-(5-fluorothiazol-2-yl)-4-((2-(methylamino)-3-(1-(trifluoromethyl)cyclopropyl)-propyl)amino)benzenesulfonamide] | 170 nM | –
CN[C@@H](CCC(C)(C)C)CNc1cc(F)c(S(=O)(=O)Nc2ncc(F)s2)cc1Cl [Ex2-15, (S)-5-chloro-4-((5,5-dimethyl-2-(methylamino)hexyl)amino)-2-fluoro-N-(5-fluorothiazol-2-yl)-benzenesulfonamide] | 670 nM | > 49
CN[C@H](CNc1cc(F)c(S(=O)(=O)Nc2nccs2)cc1Cl)CC1(C(F)(F)F)CC1 [Ex2-16, (S)-5-chloro-2-fluoro-4-((2-(methylamino)-3-(1-(trifluoromethyl)cyclopropyl)-propyl)amino)-N-(thiazol-2-yl)-benzenesulfonamide] | 120 nM | > 275
CN[C@H](CNc1cc(F)c(S(=O)(=O)Nc2ncc(F)s2)cc1Cl)C[Si](C)(C)C [Ex2-17, (R)-5-chloro-2-fluoro-N-(5-fluorothiazol-2-yl)-4-((2-(methylamino)-3-(trimethylsilyl)propyl)-amino)benzenesulfonamide] | 14 nM | > 1929
CN[C@H](CNc1cc(F)c(S(=O)(=O)Nc2ncc(F)s2)cc1Cl)CC1CC1(Cl)Cl (stereo partly drawn) [Ex2-21, 5-chloro-4-(((2S)-3-(2,2-dichlorocyclopropyl)-2-(methylamino)propyl)amino)-2-fluoro-N-(5-fluorothiazol-2-yl)-benzenesulfonamide] | 110 nM | –
CN(C)[C@H](CNc1cc(F)c(S(=O)(=O)Nc2ncc(F)s2)cc1Cl)CC1(C)CC1 [Ex7-3, (S)-5-chloro-4-((2-(dimethylamino)-3-(1-methylcyclopropyl)propyl)amino)-2-fluoro-N-(5-fluorothiazol-2-yl)benzenesulfonamide] | 150 nM | –
